Experimental data taken from patent publication US20170190671A1, “BIS(ARYL)CATECHOL DERIVATIVES AS HERBICIDES” (E I DU PONT DE NEMOURS AND COMPANY, priority 2014, published 2017).

Columns and labels:
Type in all cases: in vivo
Settings in all cases: scale 0 to 100
[1] = tested on: spring barley (Hordeum vulgare); test: Test D postemergence
From the text: Seeds of plant species selected from bluegrass (annual bluegrass, Poa annua), blackgrass (Alopecurus myosuroides), canarygrass (Phalaris minor), chickweed (common chickweed, Stellaria media), cutleaf geranium (Geranium dissectum), galium (catchweed bedstraw, Galium aparine), downy bromegrass (Bromus tectorum), field poppy (Papaver rhoeas), field violet (Viola arvensis), green foxtail (Setaria viridis), deadnettle (henbit deadnettle, Lamium amplexicaule), Italian ryegrass (Lolium multiflorum), kochia (Kochia scoparia), lambsquarters (Chenopodium album), oilseed rape (Brassica napus), pigweed (Amaranthus retroflexus), chamomile (scentless chamomile, Matricaria inodora), Russian thistle (Salsola kali), speedwell (bird's-eye speedwell, Veronica persica), spring barley (Hordeum vulgare), spring wheat (Triticum aestivum), wild buckwheat (Polygonum convolvulus), wild mustard (Sinapis arvensis), wild oat (Avenafatua), wild radish (Raphanus raphanistrum), windgrass (Apera spica-venti), winter barley (Hordeum vulgare), and winter wheat (Triticum aestivum) were planted into a silt loam soil and treated preemergence with test chemicals formulated in a non-phytotoxic solvent mixture which included a surfactant.
At the same time, these species were planted in pots containing Redi-Earth® planting medium (Scotts Company, 14111 Scottslawn Road, Marysville, Ohio 43041) comprising spaghnum peat moss, vermiculite, wetting agent and starter nutrients and treated with postemergence applications of the test chemicals formulated in the same manner. Plants ranged in height from 2 to 18 cm (1- to 4-leaf stage). Treated plants and controls were maintained in a controlled growth environment for 14 to 21 days after which time all species were compared to controls and visually evaluated. Plant response ratings, summarized in Table D, are based on a scale of 0 to 100 where 0 is no effect and 100 is complete control. A dash (-) response means no test result.

[2] = tested on: speedwell (bird's-eye speedwell, Veronica persica); test: Test D preemergence
In short: (§1)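 Seeds were sown in silt loam for preemergence treatment, or in peat/vermiculite medium for postemergence sprays at 2–18 cm (1- to 4-leaf stage). Test chemicals were in a non-phytotoxic solvent with surfactant. After 14–21 days in a controlled environment, plants were visually rated against controls on a 0–100 scale (0 no effect, 100 complete control).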

kochia (Kochia scoparia) = test: Test D preemergence
In short: as §1

[3] = tested on: canarygrass (Phalaris minor); test: Test D preemergence
In short: as §1

[4] = tested on: spring wheat (Triticum aestivum); test: Test D preemergence
In short: as §1

[5] = tested on: Italian ryegrass (Lolium multiflorum); test: Test D preemergence
In short: as §1

[6] = tested on: wild radish (Raphanus raphanistrum); test: Test D preemergence
In short: as §1

[7] = tested on: chamomile (scentless chamomile, Matricaria inodora); test: Test D preemergence
In short: as §1

[8] = tested on: deadnettle (henbit deadnettle, Lamium amplexicaule); test: Test D preemergence
In short: as §1

[9] = tested on: winter wheat (Triticum aestivum); test: Test D preemergence
In short: as §1

[10] = tested on: wild mustard (Sinapis arvensis); test: Test D preemergence
In short: as §1

[11] = tested on: galium (catchweed bedstraw, Galium aparine); test: Test D preemergence
In short: as §1

[12] = tested on: blackgrass (Alopecurus myosuroides); test: Test D preemergence
In short: as §1

Fc1cnc(Oc2c(Br)cccc2Oc2ncc(Cl)cn2)nc1 [Compound 22]
Plant response rating, Barley, Spring ([1]; 16 g ai/ha): 5 | Plant response rating, Barley, Spring ([1]; 31 g ai/ha): 10 | Plant response rating, Barley, Spring ([1]; 62 g ai/ha): 15 | Plant response rating, Barley, Spring ([1]; 125 g ai/ha): 20 | Plant response rating, Speedwell ([2]; 16 g ai/ha): 85 | Plant response rating, Speedwell ([2]; 31 g ai/ha): 90 | Plant response rating, Speedwell ([2]; 62 g ai/ha): 100 | Plant response rating, Speedwell ([2]; 125 g ai/ha): 100 | Plant response rating, Kochia (kochia (Kochia scoparia); 16 g ai/ha): 0 | Plant response rating, Kochia (kochia (Kochia scoparia); 31 g ai/ha): 10 | Plant response rating, Kochia (kochia (Kochia scoparia); 62 g ai/ha): 20 | Plant response rating, Kochia (kochia (Kochia scoparia); 125 g ai/ha): 70 | Plant response rating, Canarygrass ([3]; 16 g ai/ha): 10 | Plant response rating, Canarygrass ([3]; 31 g ai/ha): 25 | Plant response rating, Canarygrass ([3]; 62 g ai/ha): 35 | Plant response rating, Canarygrass ([3]; 125 g ai/ha): 55 | Plant response rating, Wheat, Spring ([4]; 16 g ai/ha): 0 | Plant response rating, Wheat, Spring ([4]; 31 g ai/ha): 5 | Plant response rating, Wheat, Spring ([4]; 62 g ai/ha): 15 | Plant response rating, Wheat, Spring ([4]; 125 g ai/ha): 35 | Plant response rating, Ryegrass, Italian ([5]; 16 g ai/ha): 10 | Plant response rating, Ryegrass, Italian ([5]; 31 g ai/ha): 15 | Plant response rating, Ryegrass, Italian ([5]; 62 g ai/ha): 25 | Plant response rating, Ryegrass, Italian ([5]; 125 g ai/ha): 65 | Plant response rating, Radish, Wild ([6]; 16 g ai/ha): 45 | Plant response rating, Radish, Wild ([6]; 31 g ai/ha): 55 | Plant response rating, Radish, Wild ([6]; 62 g ai/ha): 70 | Plant response rating, Radish, Wild ([6]; 125 g ai/ha): 80 | Plant response rating, Chamomile ([7]; 16 g ai/ha): 30 | Plant response rating, Chamomile ([7]; 31 g ai/ha): 40 | Plant response rating, Chamomile ([7]; 62 g ai/ha): 55 | Plant response rating, Chamomile ([7]; 125 g ai/ha): 100 | Plant response rating, Deadnettle ([8]; 16 g ai/ha): 20 | Plant response rating, Deadnettle ([8]; 31 g ai/ha): 60 | Plant response rating, Deadnettle ([8]; 62 g ai/ha): 85 | Plant response rating, Deadnettle ([8]; 125 g ai/ha): 100 | Plant response rating, Wheat, Winter ([9]; 16 g ai/ha): 0 | Plant response rating, Wheat, Winter ([9]; 31 g ai/ha): 0 | Plant response rating, Wheat, Winter ([9]; 62 g ai/ha): 5 | Plant response rating, Wheat, Winter ([9]; 125 g ai/ha): 40 | Plant response rating, Mustard, Wild ([10]; 16 g ai/ha): 20 | Plant response rating, Mustard, Wild ([10]; 31 g ai/ha): 30 | Plant response rating, Mustard, Wild ([10]; 62 g ai/ha): 100 | Plant response rating, Mustard, Wild ([10]; 125 g ai/ha): 100 | Plant response rating, Galium ([11]; 16 g ai/ha): 60 | Plant response rating, Galium ([11]; 31 g ai/ha): 65 | Plant response rating, Galium ([11]; 62 g ai/ha): 75 | Plant response rating, Galium ([11]; 125 g ai/ha): 100 | Plant response rating, Blackgrass ([12]; 16 g ai/ha): 5 | Plant response rating, Blackgrass ([12]; 31 g ai/ha): 20 | Plant response rating, Blackgrass ([12]; 62 g ai/ha): 35 | Plant response rating, Blackgrass ([12]; 125 g ai/ha): 55

Fc1cnc(Oc2c(F)cccc2Oc2ncc(Cl)cn2)nc1 [Compound 23]
Plant response rating, Barley, Spring ([1]; 16 g ai/ha): 0 | Plant response rating, Barley, Spring ([1]; 31 g ai/ha): 5 | Plant response rating, Barley, Spring ([1]; 62 g ai/ha): 5 | Plant response rating, Barley, Spring ([1]; 125 g ai/ha): 10 | Plant response rating, Speedwell ([2]; 16 g ai/ha): 100 | Plant response rating, Speedwell ([2]; 31 g ai/ha): 100 | Plant response rating, Speedwell ([2]; 62 g ai/ha): 100 | Plant response rating, Speedwell ([2]; 125 g ai/ha): 100 | Plant response rating, Kochia (kochia (Kochia scoparia); 16 g ai/ha): 15 | Plant response rating, Kochia (kochia (Kochia scoparia); 31 g ai/ha): 60 | Plant response rating, Kochia (kochia (Kochia scoparia); 62 g ai/ha): 60 | Plant response rating, Kochia (kochia (Kochia scoparia); 125 g ai/ha): 100 | Plant response rating, Canarygrass ([3]; 16 g ai/ha): 60 | Plant response rating, Canarygrass ([3]; 31 g ai/ha): 65 | Plant response rating, Canarygrass ([3]; 62 g ai/ha): 80 | Plant response rating, Canarygrass ([3]; 125 g ai/ha): 85 | Plant response rating, Wheat, Spring ([4]; 16 g ai/ha): 0 | Plant response rating, Wheat, Spring ([4]; 31 g ai/ha): 5 | Plant response rating, Wheat, Spring ([4]; 62 g ai/ha): 30 | Plant response rating, Wheat, Spring ([4]; 125 g ai/ha): 45 | Plant response rating, Ryegrass, Italian ([5]; 16 g ai/ha): 5 | Plant response rating, Ryegrass, Italian ([5]; 31 g ai/ha): 10 | Plant response rating, Ryegrass, Italian ([5]; 62 g ai/ha): 35 | Plant response rating, Ryegrass, Italian ([5]; 125 g ai/ha): 75 | Plant response rating, Radish, Wild ([6]; 16 g ai/ha): 25 | Plant response rating, Radish, Wild ([6]; 31 g ai/ha): 70 | Plant response rating, Radish, Wild ([6]; 62 g ai/ha): 90 | Plant response rating, Radish, Wild ([6]; 125 g ai/ha): 100 | Plant response rating, Chamomile ([7]; 16 g ai/ha): 20 | Plant response rating, Chamomile ([7]; 31 g ai/ha): 75 | Plant response rating, Chamomile ([7]; 62 g ai/ha): 75 | Plant response rating, Chamomile ([7]; 125 g ai/ha): 100 | Plant response rating, Deadnettle ([8]; 16 g ai/ha): 15 | Plant response rating, Deadnettle ([8]; 31 g ai/ha): 65 | Plant response rating, Deadnettle ([8]; 62 g ai/ha): 80 | Plant response rating, Deadnettle ([8]; 125 g ai/ha): 95 | Plant response rating, Wheat, Winter ([9]; 16 g ai/ha): 0 | Plant response rating, Wheat, Winter ([9]; 31 g ai/ha): 5 | Plant response rating, Wheat, Winter ([9]; 62 g ai/ha): 10 | Plant response rating, Wheat, Winter ([9]; 125 g ai/ha): 70 | Plant response rating, Mustard, Wild ([10]; 16 g ai/ha): 98 | Plant response rating, Mustard, Wild ([10]; 31 g ai/ha): 100 | Plant response rating, Mustard, Wild ([10]; 62 g ai/ha): 100 | Plant response rating, Mustard, Wild ([10]; 125 g ai/ha): 100 | Plant response rating, Galium ([11]; 16 g ai/ha): 70 | Plant response rating, Galium ([11]; 31 g ai/ha): 75 | Plant response rating, Galium ([11]; 62 g ai/ha): 95 | Plant response rating, Galium ([11]; 125 g ai/ha): 100 | Plant response rating, Blackgrass ([12]; 16 g ai/ha): 20 | Plant response rating, Blackgrass ([12]; 31 g ai/ha): 30 | Plant response rating, Blackgrass ([12]; 62 g ai/ha): 70 | Plant response rating, Blackgrass ([12]; 125 g ai/ha): 85

Fc1cccc(Oc2ncc(C(F)(F)F)cn2)c1Oc1ncc(Cl)cn1 [Compound 42, 5-chloro-2-[2-fluoro-6-[[5-(trifluoromethyl)-2-pyrimidinyl]oxy]phenoxy]pyrimidine]
Plant response rating, Barley, Spring ([1]; 16 g ai/ha): 10 | Plant response rating, Barley, Spring ([1]; 31 g ai/ha): 15 | Plant response rating, Barley, Spring ([1]; 62 g ai/ha): 20 | Plant response rating, Barley, Spring ([1]; 125 g ai/ha): 30 | Plant response rating, Kochia (kochia (Kochia scoparia); 16 g ai/ha): 35 | Plant response rating, Kochia (kochia (Kochia scoparia); 31 g ai/ha): 65 | Plant response rating, Kochia (kochia (Kochia scoparia); 62 g ai/ha): 100 | Plant response rating, Kochia (kochia (Kochia scoparia); 125 g ai/ha): 100 | Plant response rating, Canarygrass ([3]; 16 g ai/ha): 15 | Plant response rating, Canarygrass ([3]; 31 g ai/ha): 35 | Plant response rating, Canarygrass ([3]; 62 g ai/ha): 35 | Plant response rating, Canarygrass ([3]; 125 g ai/ha): 100 | Plant response rating, Wheat, Spring ([4]; 16 g ai/ha): 0 | Plant response rating, Wheat, Spring ([4]; 31 g ai/ha): 0 | Plant response rating, Wheat, Spring ([4]; 62 g ai/ha): 15 | Plant response rating, Wheat, Spring ([4]; 125 g ai/ha): 65 | Plant response rating, Ryegrass, Italian ([5]; 16 g ai/ha): 0 | Plant response rating, Ryegrass, Italian ([5]; 31 g ai/ha): 0 | Plant response rating, Ryegrass, Italian ([5]; 62 g ai/ha): 35 | Plant response rating, Ryegrass, Italian ([5]; 125 g ai/ha): 70 | Plant response rating, Radish, Wild ([6]; 16 g ai/ha): 25 | Plant response rating, Radish, Wild ([6]; 62 g ai/ha): 85 | Plant response rating, Radish, Wild ([6]; 125 g ai/ha): 100 | Plant response rating, Deadnettle ([8]; 16 g ai/ha): 70 | Plant response rating, Deadnettle ([8]; 31 g ai/ha): 85 | Plant response rating, Deadnettle ([8]; 62 g ai/ha): 100 | Plant response rating, Deadnettle ([8]; 125 g ai/ha): 100 | Plant response rating, Wheat, Winter ([9]; 16 g ai/ha): 0 | Plant response rating, Wheat, Winter ([9]; 31 g ai/ha): 0 | Plant response rating, Wheat, Winter ([9]; 62 g ai/ha): 0 | Plant response rating, Wheat, Winter ([9]; 125 g ai/ha): 50 | Plant response rating, Mustard, Wild ([10]; 16 g ai/ha): 70 | Plant response rating, Mustard, Wild ([10]; 31 g ai/ha): 65 | Plant response rating, Mustard, Wild ([10]; 62 g ai/ha): 85 | Plant response rating, Mustard, Wild ([10]; 125 g ai/ha): 100 | Plant response rating, Galium ([11]; 16 g ai/ha): 65 | Plant response rating, Galium ([11]; 31 g ai/ha): 70 | Plant response rating, Galium ([11]; 62 g ai/ha): 100 | Plant response rating, Galium ([11]; 125 g ai/ha): 100 | Plant response rating, Blackgrass ([12]; 16 g ai/ha): 0 | Plant response rating, Blackgrass ([12]; 31 g ai/ha): 10 | Plant response rating, Blackgrass ([12]; 62 g ai/ha): 35 | Plant response rating, Blackgrass ([12]; 125 g ai/ha): 75
